Molecules are shown by their SMILES. Entries after “also recorded” stand apart in the source; their conditions may differ.

Data set [1] has as its system unilaterally 6-hydroxydopamine (6-OHDA)-lesioned PD rats. As to the kind of experiment: Development of LID under once-weekly 10-hour infusion paradigm (LAO AIMs). Format: in vivo, rat. The conditions noted are these: n=9 per group; for animals that did not develop any dyskinesia or only very subtle dyskinesia: 6 and 12 mg/kg L-DOPA periods. On the procedure: Unilaterally 6-hydroxydopamine (6-OHDA)-lesioned PD rats were injected daily with L-DOPA (days 0-13: 6 mg/kg; days 14-28: 12 mg/kg; i.p.) to induce dyskinesia and tested for limb, axial and oral (LAO) abnormal involuntary movements (AIMs) twice a week for 3 hours by blinded investigators.

Data set [2] deals with patients with PD. As to the kind of experiment: Low-dose ketamine infusion in PD patient case studies (retrospective chart review). Format: in vivo, human. The method, then: We report on five cases of low-dose ketamine infusion in patients with PD identified by a retrospective chart review (Table 1). Ketamine was indicated for a variety of co-morbid conditions. The level of documentation of PD and LID symptoms pre and post-infusion was variable, but in many cases included standardized clinical rating scales collected by Movement Disorder specialists. […] Patients were treated in the intensive care unit using a protocol developed by one of the authors (ME) for treatment of intractable headache that specified titration of ketamine to a target rate of 0.15 mg/kg/hr for a 72 hr period.

The test system of data set [3] is unilaterally 6-OHDA-lesioned LID rats. As to the kind of experiment: L-DOPA-induced AIMs in the preclinical rat LID model (10 hr ketamine 'infusion' paradigm or acute injection). The following applies: cohort #1; for L-DOPA-induced contralateral locomotor behavior / ipsiversive turning behavior (worsening of the Parkinsonism): all tested doses; for L-DOPA-induced contralateral locomotor behavior: 10 hr 'infusion'; for ipsiversive turning behavior (worsening of the Parkinsonism): in the presence of L-DOPA.

The test system of data set [4] is awake and behaving naive rats. Description: Local-field activity recordings in motor cortex (M1) and dorsolateral striatum (DLS), naive rats. The conditions noted are these: 20 mg/kg, 5 i.p. injections every 2 hours. Format: in vivo, rat. The method, then: Using the 10-hour racemic ketamine paradigm (5 i.p. injections every 2 hours), simultaneous local-field activity in multiple brain structures in two awake and behaving naive rats was measured. Recordings were acquired from a 64 channel fixed electrode array. Average response across 2 animals and 5 sessions was obtained.

The test system of data set [5] is striatal DA content. Description: Electrochemical detection (HPLC-EC) of striatal DA content. The format is in vivo, rat. On the procedure: Measurement of dopamine content: Coronal brain slices were collected and 2 mm steel biopsy punches were used to sample striatal tissue. Samples from left and right hemispheres were collected and immediately flash frozen on an aluminum pan at −70° C., as published (Flores et al., 2014). Samples massed at 2.5±0.5 mg and were then homogenized in dilute perchloric acid. High performance liquid chromatography with electrochemical detection (HPLC-EC) was used to quantify DA.

Data set [6] concerns unilateral 6-hydroxydopamine (6-OHDA)-lesioned rats. Description: Local-field activity recordings in M1 and DLS, rodent Parkinson's disease model. Format: in vivo, rat. The conditions noted are these: 20 mg/kg, 5 i.p. injections every 2 hours. On the procedure: Using a 10-hour racemic ketamine paradigm (5 i.p. injections every 2 hours), simultaneous measurement of local-field activity in multiple brain structures in three awake and behaving unilateral 6-hydroxydopamine (6-OHDA)-lesioned rats, a common model of Parkinson's disease. Recordings were acquired from a 64 channel fixed electrode array. Average response across 3 animals. Power spectrogram from a 10 hour session created by averaging spectra acquired. Vertical lines indicate ketamine injection times.

The subject of data set [7] is tyrosine hydroxylase (TH). Description: Semi-quantitative western analysis of striatal tyrosine hydroxylase expression. The format is in vivo, rat. The conditions noted are these: unilateral lesion; TH normalized to β-actin; n=15. On the procedure: Western analysis of tyrosine hydroxylase (TH) content: After the tissue punch, described above, the remaining striata from left and right hemispheres were immediately flash frozen and stored at —70 ° C. Total protein was prepared and semi-quantitative western analysis was conducted as described (Flores et al., 2014; Yue et al., 2014) with 3 modifications. 30 μg of protein/sample was loaded and analyzed on the same blot. Secondary antibody dilution for β-actin: 1:10,000. Images were analyzed with the G:Box XR5 Chemi system (Syngene, Frederick, Md.) using GeneSys v. 1.4.0.0.

[8] abbreviates: DLS and M1, after each injection.

In the case of `CN[C@@]1(c2ccccc2Cl)CCCCC1=O` [R-ketamine], the “animals that did not develop any dyskinesia or only very subtle dyskinesia” value in data set [1] amounted to 1.
On to `CNC1(c2ccccc2Cl)CCCCC1=O` (racemic) [ketamine, (RS)-2-(2-Chlorophenyl)-2-(methylamino)cyclohexanone], for which, in data set [2] (case #1, 72 hr low-dose ketamine infusion), the “UPDRS Dyskinesia score (sum of items 32-34)” value is “reduced”. Besides, the dyskinesia result in data set [2] (case #1, at second infusion 3 years later despite increase in L-DOPA dose) is given as “free of dyskinesia”; in data set [2] (case #1, during and after the infusion, carbidopa/L-DOPA dosages unchanged), “improved markedly”; in data set [2] (case #2, low-dose ketamine infusion), “dramatic reduction”; in data set [2] (case #3, following the infusion), “completely subsided”. Moreover, the severe tremor entry in data set [2] (case #1, during second infusion, tremor had returned 3 weeks later) was “resolved acutely”. Besides, the “% dyskinesia on time” value in data set [2] (case #1, patient diary, 72 hr low-dose ketamine infusion) is on record as “reduced”. In data set [2] (case #1, weeks 2-4 post-K), the LID entry is reported as “completely resolved”. Also, the depression entry in data set [2] (case #3) is on record as “dramatically improved”. Also, the motor symptoms result in data set [2] (case #3, during the infusion) is listed as “acutely improved”. In addition, the headache entry in data set [2] (case #4) is “improved”. In data set [2] (cases #4 and 5 (STN DBS-treated)), the “effect on motor symptoms” value is “little effect”. For the same compound, the tolerability and safety result in data set [2] (five PD case reports overall) was “excellent tolerability and safety”. Moreover, the “change in the already-reduced AIMs score” value in data set [3] (10 mg/kg ketamine-'infusion' given after the other treatments (test for sensitization)) is “No change”. In addition, the “persistent reduction of AIMs scores lasted (post-injection)” value in data set [3] (20 mg/kg ketamine-'infusion') is “at least 55 days”. Moreover, the “L-DOPA-induced contralateral locomotor behavior” value in data set [3] is “did not significantly change”; in data set [3] (listed as Ketamine) it was “did not have a significant effect”. The “ipsiversive turning behavior (worsening of the Parkinsonism)” value in data set [3] is “did not acutely induce”; in data set [3] (listed as Ketamine) it was “did not induce ipsilateral rotations”. Further, in data set [3] (low-dose ketamine given for a 10 hr period, 5-20 mg/kg), the “anti-dyskinetic effect (LID / AIMs)” value was “dose-dependent long-term anti-dyskinetic effect; also recorded: Long-term dose-dependent reduction”. In addition, the “LAO-AIMs score, pre-K (20 mg/kg) vs last testing session” value in data set [3] (n=5, p<0.05) is given as “significantly reduced”. Also, the “coherence in the HFO frequency band” value in data set [4] (M1-DLS) was “increased”. In addition, the “high-frequency activity (120-140 Hz)” value in data set [4] (M1 and DLS, after each injection) is reported as “clear increase”; in data set [6] (setting [8]), “clear increase”. Further, the “correlation (r) of coherence in HFO and beta bands” value in data set [4] (n=5 sessions) is on record as −0.65. The “coherence in the beta band” value in data set [4] (with successive injections) is listed as “decreased”. Further, in data set [5] (acute i.p. 20 mg/kg vs. saline, 30 min before euthanasia), the “striatal [DA]” value is reported as “unchanged”. Moreover, the “gamma band activity (40-60 Hz)” value in data set [6] (setting [8]) was “clear increase”. The “beta-gamma cross-frequency coupling (CFC) in the DLS” value in data set [6] (following each injection, n=15 sessions across 3 animals) is recorded as “reduced”. For the same compound, the “reduction of mean LAO AIMs scores” value in data set [1] (10-hours infusion paradigm once a week, daily L-DOPA 6 then 12 mg/kg i.p.) was determined as 50%. In data set [1], the “animals that did not develop any dyskinesia or only very subtle dyskinesia” value is given as 4 of 9.
As for `NCCc1cc(O)c(O)cc1O` [6-OHDA, 6-hydroxydopamine], in data set [7], the “reduction of striatal TH expression in the lesioned side” value came out at 87%. Further, in data set [5] (unilateral lesion, lesioned vs unlesioned side), the “reduction of striatal DA content in the lesioned side” value is reported as over 95%.
With `NC12CC3CC(CC(C3)C1)C2` [amantadine], the LID entry in data set [2] (case #2, prior treatment, 200 mg daily) was “failed to improve”.
